Values joined by “and” are separate entries in the source; they are usually repeats but may differ in a detail not shown here. Identical values can stand only once.
Legend:
Assay in all cases: KINOMEscan competition binding
Conditions in all cases: compound 10.0 µM
[1] = target: ACVR2A (human) (UniProt P27037)
[2] = target: BRSK2 (human) (UniProt Q8IWQ3)
[3] = target: CDC42BPB (human) (UniProt Q9Y5S2)
[4] = target: CDK16 (human) (UniProt Q00536)
[5] = target: CDKL3 (human) (UniProt Q8IVW4)
[6] = target: CSNK1E (human) (UniProt P49674)
[7] = target: EPHA3 (human) (UniProt P29320)
[8] = target: EPHB1 (human) (UniProt P54762)
[9] = target: FGR (human) (UniProt P09769)
[10] = tested on: FLT3 (human), P36888 [D835Y]
[11] = target: GAK (human) (UniProt O14976)
[12] = target: GSK3A (human) (UniProt P49840)
[13] = target: HIPK1 (human) (UniProt Q86Z02)
[14] = target: IKBKE (human) (UniProt Q14164)
[15] = target: KIT (human) (UniProt P10721)
[16] = target: MAP2K3 (human) (UniProt P46734)
[17] = target: MAP3K11 (human) (UniProt Q16584)
[18] = target: MAPK11 (human) (UniProt Q15759)
[19] = target: MAPK12 (human) (UniProt P53778)
[20] = target: MARK2 (human) (UniProt Q7KZI7)
[21] = target: MST4 (human) (UniProt Q9P289)
[22] = target: NEK4 (human) (UniProt P51957)
[23] = target: NEK6 (human) (UniProt Q9HC98)
[24] = target: NTRK1 (human) (UniProt P04629)
[25] = target: PDGFRA (human) (UniProt P16234)
[26] = target: PLK1 (human) (UniProt P53350)
[27] = target: PRKACA (human) (UniProt P17612)
[28] = target: PRKCE (human) (UniProt Q02156)
[29] = target: RAF1 (human) (UniProt P04049)
[30] = target: RIOK1 (human) (UniProt Q9BRS2)
[31] = target: RIPK1 (human) (UniProt Q13546)
[32] = target: RPS6KA2 KD2 (human) (UniProt Q15349)
[33] = target: SRMS (human) (UniProt Q9H3Y6)
[34] = target: STK10 (human) (UniProt O94804)
[35] = target: TESK1 (human) (UniProt Q15569)
[36] = target: TNK1 (human) (UniProt Q13470)
[37] = target: TXK (human) (UniProt P42681)
[38] = target: TYK2 JH1 catalytic (human) (UniProt P29597)
[39] = target: VRK2 (human) (UniProt Q86Y07)
[40] = target: YSK4 (human) (UniProt Q56UN5)
Sequence of YSK4 (human) (Q56UN5 whole entry, looked up): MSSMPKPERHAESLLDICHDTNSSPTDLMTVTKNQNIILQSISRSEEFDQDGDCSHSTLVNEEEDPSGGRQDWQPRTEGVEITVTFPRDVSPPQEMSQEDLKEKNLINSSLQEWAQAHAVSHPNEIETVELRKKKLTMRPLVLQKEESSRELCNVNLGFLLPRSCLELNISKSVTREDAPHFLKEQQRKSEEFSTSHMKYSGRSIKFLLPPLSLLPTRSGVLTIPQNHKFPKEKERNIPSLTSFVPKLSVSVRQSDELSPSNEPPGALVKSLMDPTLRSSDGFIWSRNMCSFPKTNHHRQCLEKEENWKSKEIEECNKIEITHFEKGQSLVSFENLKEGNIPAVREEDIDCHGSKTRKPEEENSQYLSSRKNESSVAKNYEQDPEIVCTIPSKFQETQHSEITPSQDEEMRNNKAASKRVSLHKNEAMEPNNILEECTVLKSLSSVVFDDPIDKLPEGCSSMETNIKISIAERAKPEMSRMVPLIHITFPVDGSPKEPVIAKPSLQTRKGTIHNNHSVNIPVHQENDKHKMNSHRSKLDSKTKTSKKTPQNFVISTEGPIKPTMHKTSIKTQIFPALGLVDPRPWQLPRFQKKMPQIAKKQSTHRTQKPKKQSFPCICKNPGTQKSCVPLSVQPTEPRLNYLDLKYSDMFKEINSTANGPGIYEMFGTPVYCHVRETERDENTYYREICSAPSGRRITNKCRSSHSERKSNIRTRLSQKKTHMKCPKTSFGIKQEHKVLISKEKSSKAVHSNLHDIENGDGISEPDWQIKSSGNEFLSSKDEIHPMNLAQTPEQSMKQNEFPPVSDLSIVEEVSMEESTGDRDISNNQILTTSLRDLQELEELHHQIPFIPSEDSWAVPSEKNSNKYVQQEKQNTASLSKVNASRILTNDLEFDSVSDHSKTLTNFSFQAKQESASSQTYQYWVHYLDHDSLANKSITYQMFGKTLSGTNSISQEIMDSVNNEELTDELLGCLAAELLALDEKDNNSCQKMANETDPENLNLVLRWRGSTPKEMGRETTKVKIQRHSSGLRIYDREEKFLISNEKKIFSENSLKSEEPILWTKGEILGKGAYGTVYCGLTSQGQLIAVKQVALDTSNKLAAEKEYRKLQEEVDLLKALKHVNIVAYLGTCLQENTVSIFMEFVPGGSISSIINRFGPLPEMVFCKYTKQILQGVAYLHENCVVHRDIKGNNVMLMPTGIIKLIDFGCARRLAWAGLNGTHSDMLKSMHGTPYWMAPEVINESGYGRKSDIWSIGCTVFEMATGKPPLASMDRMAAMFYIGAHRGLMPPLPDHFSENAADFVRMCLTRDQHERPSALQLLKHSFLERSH

Sequence of HIPK1 (human) (Q86Z02 whole entry, looked up): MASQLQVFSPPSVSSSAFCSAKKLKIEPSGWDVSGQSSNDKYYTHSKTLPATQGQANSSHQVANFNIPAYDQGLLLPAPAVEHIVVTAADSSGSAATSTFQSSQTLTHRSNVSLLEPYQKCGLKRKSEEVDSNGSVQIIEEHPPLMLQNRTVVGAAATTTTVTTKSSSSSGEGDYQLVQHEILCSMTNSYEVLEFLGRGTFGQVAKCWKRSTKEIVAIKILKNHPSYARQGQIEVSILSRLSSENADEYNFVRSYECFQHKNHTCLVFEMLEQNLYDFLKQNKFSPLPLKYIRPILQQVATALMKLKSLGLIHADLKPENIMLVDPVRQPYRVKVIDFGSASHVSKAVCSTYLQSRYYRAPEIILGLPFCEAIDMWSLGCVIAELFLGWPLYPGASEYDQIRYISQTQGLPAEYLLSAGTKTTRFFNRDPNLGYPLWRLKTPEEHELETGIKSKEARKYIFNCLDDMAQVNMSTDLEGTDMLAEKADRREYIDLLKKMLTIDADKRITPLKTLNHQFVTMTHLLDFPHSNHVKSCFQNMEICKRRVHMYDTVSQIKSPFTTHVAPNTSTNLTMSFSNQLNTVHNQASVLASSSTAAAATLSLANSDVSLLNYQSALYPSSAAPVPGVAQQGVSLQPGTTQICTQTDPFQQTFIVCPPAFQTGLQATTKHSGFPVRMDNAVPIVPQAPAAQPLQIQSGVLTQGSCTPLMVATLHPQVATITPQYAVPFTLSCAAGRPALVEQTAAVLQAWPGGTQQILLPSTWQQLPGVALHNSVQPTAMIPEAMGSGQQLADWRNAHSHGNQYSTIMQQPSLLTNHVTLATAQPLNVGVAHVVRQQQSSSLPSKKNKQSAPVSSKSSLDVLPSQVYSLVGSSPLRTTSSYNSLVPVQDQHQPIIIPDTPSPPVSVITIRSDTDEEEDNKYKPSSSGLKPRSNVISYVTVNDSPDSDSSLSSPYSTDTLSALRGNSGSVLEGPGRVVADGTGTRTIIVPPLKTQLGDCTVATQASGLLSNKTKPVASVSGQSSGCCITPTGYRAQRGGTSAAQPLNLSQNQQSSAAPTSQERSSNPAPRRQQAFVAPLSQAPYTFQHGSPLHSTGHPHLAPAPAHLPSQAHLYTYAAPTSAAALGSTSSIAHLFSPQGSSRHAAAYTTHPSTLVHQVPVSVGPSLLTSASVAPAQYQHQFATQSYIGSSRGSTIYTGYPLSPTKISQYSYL
Sequence of EPHA3 (human) (P29320 whole entry, looked up): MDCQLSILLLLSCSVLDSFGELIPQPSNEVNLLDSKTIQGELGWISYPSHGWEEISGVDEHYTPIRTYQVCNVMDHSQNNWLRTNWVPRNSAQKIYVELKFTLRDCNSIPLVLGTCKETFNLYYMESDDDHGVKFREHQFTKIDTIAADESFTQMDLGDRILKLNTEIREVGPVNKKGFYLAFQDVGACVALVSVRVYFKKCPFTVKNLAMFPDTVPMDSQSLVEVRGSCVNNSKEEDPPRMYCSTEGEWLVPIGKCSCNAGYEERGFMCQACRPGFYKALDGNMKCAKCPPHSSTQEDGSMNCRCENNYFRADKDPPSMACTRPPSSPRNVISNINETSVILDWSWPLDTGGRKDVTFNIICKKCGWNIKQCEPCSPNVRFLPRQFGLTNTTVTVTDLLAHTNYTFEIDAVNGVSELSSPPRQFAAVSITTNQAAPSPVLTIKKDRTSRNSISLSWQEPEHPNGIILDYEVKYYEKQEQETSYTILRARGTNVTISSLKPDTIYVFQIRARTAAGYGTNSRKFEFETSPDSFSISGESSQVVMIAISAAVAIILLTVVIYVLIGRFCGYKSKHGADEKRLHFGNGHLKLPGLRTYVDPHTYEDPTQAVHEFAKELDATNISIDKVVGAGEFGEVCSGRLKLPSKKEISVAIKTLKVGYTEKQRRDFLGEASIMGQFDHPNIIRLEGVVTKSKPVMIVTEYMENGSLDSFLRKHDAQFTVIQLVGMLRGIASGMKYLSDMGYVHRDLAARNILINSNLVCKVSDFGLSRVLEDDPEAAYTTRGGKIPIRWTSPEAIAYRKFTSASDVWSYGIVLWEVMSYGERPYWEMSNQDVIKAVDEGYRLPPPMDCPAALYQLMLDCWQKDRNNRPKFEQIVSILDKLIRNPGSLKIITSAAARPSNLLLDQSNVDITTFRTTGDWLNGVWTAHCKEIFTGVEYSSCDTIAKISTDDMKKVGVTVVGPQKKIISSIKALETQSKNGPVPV
Sequence of MARK2 (human) (Q7KZI7 whole entry, looked up): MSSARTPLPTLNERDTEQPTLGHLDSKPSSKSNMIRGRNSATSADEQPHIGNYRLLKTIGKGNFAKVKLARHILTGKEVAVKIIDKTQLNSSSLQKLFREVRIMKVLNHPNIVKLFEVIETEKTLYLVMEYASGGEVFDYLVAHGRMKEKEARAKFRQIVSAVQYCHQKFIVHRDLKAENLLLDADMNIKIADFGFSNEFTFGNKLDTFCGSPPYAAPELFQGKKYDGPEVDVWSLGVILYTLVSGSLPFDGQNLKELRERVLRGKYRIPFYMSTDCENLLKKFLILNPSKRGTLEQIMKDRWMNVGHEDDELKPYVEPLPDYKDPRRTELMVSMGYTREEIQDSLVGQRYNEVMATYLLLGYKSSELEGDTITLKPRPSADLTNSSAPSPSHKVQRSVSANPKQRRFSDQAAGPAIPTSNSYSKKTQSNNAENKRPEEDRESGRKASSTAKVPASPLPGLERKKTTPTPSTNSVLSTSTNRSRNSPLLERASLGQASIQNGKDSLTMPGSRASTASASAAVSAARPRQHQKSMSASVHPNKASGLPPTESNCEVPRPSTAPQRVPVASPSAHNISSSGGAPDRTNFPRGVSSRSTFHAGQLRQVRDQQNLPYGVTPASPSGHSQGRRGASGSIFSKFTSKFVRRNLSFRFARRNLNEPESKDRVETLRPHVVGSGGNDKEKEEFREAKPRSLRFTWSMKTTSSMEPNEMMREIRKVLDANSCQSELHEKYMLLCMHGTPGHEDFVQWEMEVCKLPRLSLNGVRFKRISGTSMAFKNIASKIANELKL
Sequence of SRMS (human) (Q9H3Y6 whole entry, looked up): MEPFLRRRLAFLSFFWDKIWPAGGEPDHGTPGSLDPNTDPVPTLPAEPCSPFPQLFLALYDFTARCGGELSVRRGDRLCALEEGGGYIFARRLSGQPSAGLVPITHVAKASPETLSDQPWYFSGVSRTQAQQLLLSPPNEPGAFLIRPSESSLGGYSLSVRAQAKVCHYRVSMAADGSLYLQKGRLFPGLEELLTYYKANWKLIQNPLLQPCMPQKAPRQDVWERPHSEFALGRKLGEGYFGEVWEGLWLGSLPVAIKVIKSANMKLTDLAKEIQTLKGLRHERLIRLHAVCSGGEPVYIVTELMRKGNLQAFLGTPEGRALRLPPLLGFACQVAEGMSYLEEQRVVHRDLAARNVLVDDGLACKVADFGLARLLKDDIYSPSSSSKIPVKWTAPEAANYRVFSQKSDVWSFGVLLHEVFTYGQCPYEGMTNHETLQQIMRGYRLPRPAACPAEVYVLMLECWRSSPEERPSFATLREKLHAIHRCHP

| SMILES | kinase still bound, per cent of control [1] [%] | kinase still bound, per cent of control [2] [%] | kinase still bound, per cent of control [3] [%] | kinase still bound, per cent of control [4] [%] | kinase still bound, per cent of control [5] [%] | kinase still bound, per cent of control [6] [%] | kinase still bound, per cent of control [7] [%] | kinase still bound, per cent of control [8] [%] | kinase still bound, per cent of control [9] [%] | kinase still bound, per cent of control [10] [%] | kinase still bound, per cent of control [11] [%] | kinase still bound, per cent of control [12] [%] | kinase still bound, per cent of control [13] [%] | kinase still bound, per cent of control [14] [%] | kinase still bound, per cent of control [15] | kinase still bound, per cent of control [16] [%] | kinase still bound, per cent of control [17] [%] | kinase still bound, per cent of control [18] [%] | kinase still bound, per cent of control [19] [%] | kinase still bound, per cent of control [20] [%] | further results |
| --- | --- | --- | --- | --- | --- | --- | --- | --- | --- | --- | --- | --- | --- | --- | --- | --- | --- | --- | --- | --- | --- |
| CNC(=O)Nc1ccc(-c2nc(N3CC4CCC(C3)O4)c3cnn(C4CCC5(CC4)OCCO5)c3n2)cc1 | 78 | 100 | 100 | 100 | 95 | 39 | 100 | 90 | 100 | 99 | 75 | 82 | 100 | 100 | 91% and 93% | 89 | 100 | 100 | 54 | 100 | kinase still bound, per cent of control [21]: 70%; kinase still bound, per cent of control [22]: 82%; kinase still bound, per cent of control [23]: 90%; kinase still bound, per cent of control [24]: 100%; kinase still bound, per cent of control [25]: 80%; kinase still bound, per cent of control [26]: 77%; kinase still bound, per cent of control [27]: 75%; kinase still bound, per cent of control [28]: 100%; kinase still bound, per cent of control [29]: 100%; kinase still bound, per cent of control [30]: 91%; kinase still bound, per cent of control [31]: 83%; kinase still bound, per cent of control [32]: 93%; kinase still bound, per cent of control [33]: 97%; kinase still bound, per cent of control [34]: 99%; kinase still bound, per cent of control [35]: 80%; kinase still bound, per cent of control [36]: 78%; kinase still bound, per cent of control [37]: 94%; kinase still bound, per cent of control [38]: 100%; kinase still bound, per cent of control [39]: 100%; kinase still bound, per cent of control [40]: 100% |
| CCCS(=O)(=O)Nc1ccc(F)c(C(=O)c2c[nH]c3ncc(Cl)cc23)c1F | 100 | 86 | 100 | 68 | 100 | 60 | 65 | 100 | 8.4 | 31 | 40 | 100 | 36 | 91 | 0.1% | 53 | 88 | 100 | 100 | 92 | kinase still bound, per cent of control [21]: 96%; kinase still bound, per cent of control [22]: 71%; kinase still bound, per cent of control [23]: 91%; kinase still bound, per cent of control [24]: 100%; kinase still bound, per cent of control [25]: 0.2%; kinase still bound, per cent of control [26]: 100%; kinase still bound, per cent of control [27]: 94%; kinase still bound, per cent of control [28]: 100%; kinase still bound, per cent of control [29]: 3.4%; kinase still bound, per cent of control [30]: 100%; kinase still bound, per cent of control [31]: 53%; kinase still bound, per cent of control [32]: 94%; kinase still bound, per cent of control [33]: 0.05%; kinase still bound, per cent of control [34]: 68%; kinase still bound, per cent of control [35]: 13%; kinase still bound, per cent of control [36]: 96%; kinase still bound, per cent of control [37]: 69%; kinase still bound, per cent of control [38]: 24%; kinase still bound, per cent of control [39]: 77%; kinase still bound, per cent of control [40]: 29% |
| O=c1[nH]c2ccccc2n1C1CCN(Cc2ccc(-c3nc4cc5[nH]cnc5cc4nc3-c3ccccc3)cc2)CC1 | 88 | 88 | 83 | 97 | 100 | 15 | 82 | 100 | 100 | 51 | 88 | 100 | 69 | 100 | 95% and 89% | 100 | 100 | 95 | 98 | 83 | kinase still bound, per cent of control [21]: 100%; kinase still bound, per cent of control [22]: 93%; kinase still bound, per cent of control [23]: 100%; kinase still bound, per cent of control [24]: 100%; kinase still bound, per cent of control [25]: 83%; kinase still bound, per cent of control [26]: 93%; kinase still bound, per cent of control [27]: 100%; kinase still bound, per cent of control [28]: 100%; kinase still bound, per cent of control [29]: 99%; kinase still bound, per cent of control [30]: 76%; kinase still bound, per cent of control [31]: 100%; kinase still bound, per cent of control [32]: 100%; kinase still bound, per cent of control [33]: 65%; kinase still bound, per cent of control [34]: 65%; kinase still bound, per cent of control [35]: 74%; kinase still bound, per cent of control [36]: 91%; kinase still bound, per cent of control [37]: 87%; kinase still bound, per cent of control [38]: 66%; kinase still bound, per cent of control [39]: 76%; kinase still bound, per cent of control [40]: 75% |

— the kinase profiling compilation of Christmann-Franck et al. (2016)
